Data: patent US20120184517A1, “TREATMENT OF DISEASES WITH ALTERED SMOOTH MUSCLE CONTRACTILITY” (priority 2009, published 2012)
“Also recorded” adds a separate entry of the source.

Legend:
[1] = target: c-Jun N-terminal kinase 1 α1 (JNK1 α1) (Homo sapiens, UniProt P45983); conditions: 20 μM; cited from earlier work
[2] = target: BKCa channel (Homo sapiens, UniProt Q12791); test: Outside-out single channel recordings of cultured human VSMC; assay type: cell-based; parameters: Human vascular smooth muscle cells (VSMC) grown in vitro express BKCa channels; endogenous in cells; host or cells: cultured human vascular smooth muscle cells (outside-out patches)
[3] = target: Akt (Homo sapiens, UniProt P31749); conditions: 20 μM; cited from earlier work
[4] = target: protein kinase A (PKA) (Homo sapiens, UniProt P17612); conditions: cited from earlier work
[5] = tested on: other PKC isozymes; conditions: cited from earlier work
[6] = tested on: Jurkat T cells and purified human CD4+ T cells; conditions: cited from earlier work
[7] = tested on: 3T3-L1 adipocytes; conditions: read-out: IC50 of insulin-induced glucose uptake; cited from earlier work
[8] = tested on: murine femoral arterial rings; assay type: cell-based
Description: Current was monitored with a ramp protocol; holding potential −60 mV, with ramp from −80 mV to +150 mV over 500 ms. […] Analysis was performed using tail analysis with normalization as previously described (Xia, et al., Multiple regulatory sites in large-conductance calcium-activated potassium channels. Nature, 2002. 418(6900):880-4). […] Identification of the BKCa channel was determined by conductance and inhibition by iberiotoxin and TEA. […] Murine femoral arterial rings were isolated and placed in a wire myograph. […] The figures shown are representative of 4 similar experiments. Error bars are standard error of the mean (SEM). Asterisk (*) indicates p<0.001.

[9] = tested on: OVA-challenged animals; conditions: in vivo; cited from earlier work
[10] = target: PKCα (Homo sapiens, UniProt P17252); conditions: rottlerin 20 μM, 0.1 mM ATP, phosphatidylserine; cited from earlier work
[11] = tested on: tracheal rings; test: Isoproterenol-induced relaxation of tracheal rings from PBS- and OVA-sensitized animals; assay type: cell-based, murine; parameters: isoproterenol-induced relaxation: dose or concentration left out as unconfirmed
Description: The isoproterenol-induced relaxation of tracheal rings from OVA-sensitized asthmatic animals was also tested. After induction of asthma, tracheal rings were removed and mounted on the myograph. […] At the conclusion of the experiment, each tracheal ring was exposed to methacholine to ensure viability of the ring and equivalent constriction.
After induction of asthma, tracheal rings were removed and mounted on the myograph. […] The ISO-relaxation curve was shifted downward and to the right, with the maximal relaxation response reduced to only ˜25% from more than 60%.

[12] = target: PKCδ (Homo sapiens, UniProt Q05655); conditions: rottlerin 20 μM, 0.1 mM ATP, phosphatidylserine; cited from earlier work
Chain of PKCδ (Q05655 whole entry): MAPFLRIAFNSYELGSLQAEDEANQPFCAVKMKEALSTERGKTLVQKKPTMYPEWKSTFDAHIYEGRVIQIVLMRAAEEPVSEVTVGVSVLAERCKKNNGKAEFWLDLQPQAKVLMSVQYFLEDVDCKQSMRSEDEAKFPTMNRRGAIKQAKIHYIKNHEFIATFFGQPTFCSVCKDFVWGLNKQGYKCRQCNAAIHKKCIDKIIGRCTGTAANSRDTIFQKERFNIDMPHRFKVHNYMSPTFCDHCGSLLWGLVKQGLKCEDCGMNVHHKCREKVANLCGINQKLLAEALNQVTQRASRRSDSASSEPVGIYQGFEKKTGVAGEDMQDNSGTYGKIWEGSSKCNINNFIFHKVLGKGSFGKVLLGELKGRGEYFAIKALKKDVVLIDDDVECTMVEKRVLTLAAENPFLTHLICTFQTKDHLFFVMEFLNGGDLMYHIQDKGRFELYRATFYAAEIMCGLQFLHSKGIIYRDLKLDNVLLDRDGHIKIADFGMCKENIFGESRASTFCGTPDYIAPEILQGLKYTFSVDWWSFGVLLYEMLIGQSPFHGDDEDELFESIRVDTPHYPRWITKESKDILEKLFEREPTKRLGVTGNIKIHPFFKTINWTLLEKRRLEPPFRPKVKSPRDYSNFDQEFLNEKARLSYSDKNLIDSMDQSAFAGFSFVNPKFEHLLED

Chain of BKCa channel (Q12791 whole entry): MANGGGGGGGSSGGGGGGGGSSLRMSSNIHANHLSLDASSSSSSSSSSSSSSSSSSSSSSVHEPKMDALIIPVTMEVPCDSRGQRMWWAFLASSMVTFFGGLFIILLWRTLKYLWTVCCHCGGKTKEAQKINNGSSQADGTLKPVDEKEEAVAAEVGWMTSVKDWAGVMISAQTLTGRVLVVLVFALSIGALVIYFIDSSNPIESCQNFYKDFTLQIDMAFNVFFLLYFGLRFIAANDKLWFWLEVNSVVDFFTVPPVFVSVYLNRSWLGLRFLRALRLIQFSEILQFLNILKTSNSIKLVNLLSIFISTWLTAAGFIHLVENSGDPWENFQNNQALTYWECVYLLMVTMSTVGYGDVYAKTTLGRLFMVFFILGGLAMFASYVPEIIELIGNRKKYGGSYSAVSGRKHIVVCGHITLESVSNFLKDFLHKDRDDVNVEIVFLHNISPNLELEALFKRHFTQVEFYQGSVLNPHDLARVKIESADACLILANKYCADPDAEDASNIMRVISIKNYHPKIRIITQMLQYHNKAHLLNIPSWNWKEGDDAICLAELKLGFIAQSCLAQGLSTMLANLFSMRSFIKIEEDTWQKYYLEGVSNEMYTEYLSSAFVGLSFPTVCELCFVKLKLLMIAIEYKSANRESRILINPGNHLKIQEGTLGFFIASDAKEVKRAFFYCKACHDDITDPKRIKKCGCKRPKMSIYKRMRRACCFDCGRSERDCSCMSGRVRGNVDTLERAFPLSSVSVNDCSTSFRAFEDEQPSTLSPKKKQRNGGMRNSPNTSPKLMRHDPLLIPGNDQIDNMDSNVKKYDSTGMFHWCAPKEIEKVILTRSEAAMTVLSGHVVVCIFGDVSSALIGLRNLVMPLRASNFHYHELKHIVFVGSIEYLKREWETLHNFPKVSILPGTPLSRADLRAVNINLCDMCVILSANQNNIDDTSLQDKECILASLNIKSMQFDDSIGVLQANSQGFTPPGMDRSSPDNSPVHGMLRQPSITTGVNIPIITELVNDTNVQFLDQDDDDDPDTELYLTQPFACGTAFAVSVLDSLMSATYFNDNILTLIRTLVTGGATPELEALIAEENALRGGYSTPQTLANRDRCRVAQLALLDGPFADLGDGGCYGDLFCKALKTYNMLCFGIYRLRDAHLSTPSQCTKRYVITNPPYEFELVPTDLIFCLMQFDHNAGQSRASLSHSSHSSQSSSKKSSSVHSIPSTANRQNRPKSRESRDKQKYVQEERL
Chain of Akt (P31749 whole entry): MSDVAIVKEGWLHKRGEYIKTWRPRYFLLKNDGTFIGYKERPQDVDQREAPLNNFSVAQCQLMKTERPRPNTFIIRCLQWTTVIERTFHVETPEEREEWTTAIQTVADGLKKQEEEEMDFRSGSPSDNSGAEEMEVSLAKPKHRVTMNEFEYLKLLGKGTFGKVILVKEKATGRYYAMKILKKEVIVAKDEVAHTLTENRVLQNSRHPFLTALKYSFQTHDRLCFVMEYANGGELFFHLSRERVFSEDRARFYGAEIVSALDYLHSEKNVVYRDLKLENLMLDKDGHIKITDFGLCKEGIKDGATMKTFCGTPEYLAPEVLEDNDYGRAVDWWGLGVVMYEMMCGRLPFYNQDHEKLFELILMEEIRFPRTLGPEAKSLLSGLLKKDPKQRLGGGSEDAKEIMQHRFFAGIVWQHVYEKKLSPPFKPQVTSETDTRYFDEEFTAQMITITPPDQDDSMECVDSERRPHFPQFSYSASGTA
Chain of c-Jun N-terminal kinase 1 α1 (JNK1 α1) (P45983 1-384 isoform P45983-2, species assumed): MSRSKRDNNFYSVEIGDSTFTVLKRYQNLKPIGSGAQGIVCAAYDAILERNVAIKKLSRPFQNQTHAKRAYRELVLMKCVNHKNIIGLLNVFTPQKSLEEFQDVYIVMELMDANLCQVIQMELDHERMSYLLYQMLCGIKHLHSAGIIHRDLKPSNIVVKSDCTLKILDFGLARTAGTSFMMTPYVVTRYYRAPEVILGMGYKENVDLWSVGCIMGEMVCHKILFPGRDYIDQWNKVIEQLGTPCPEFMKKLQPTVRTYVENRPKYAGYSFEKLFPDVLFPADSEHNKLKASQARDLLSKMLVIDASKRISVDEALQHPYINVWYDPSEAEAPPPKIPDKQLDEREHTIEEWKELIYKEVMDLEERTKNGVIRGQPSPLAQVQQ

CC(=O)c1c(O)c(C)c(O)c(Cc2c(O)c3c(c(C(=O)/C=C/c4ccccc4)c2O)OC(C)(C)C=C3)c1O [rottlerin, 5,7-dihydroxy-2,2-dimethyl-6-(2,4,6-trihydroxy-3-methyl-5-acetylbenzyl)-8-cinnamoyl-I,2-chromene]
inhibition [1]: 51%
channel open probability ([2]; 0.5 μM rottlerin, outside-out patches, cultured human VSMC): significant increase
Po and open dwell time ([2]; rottlerin 0.5 μM local perfusion, +60 mV): increasing Po and open dwell time; also recorded: significantly increased
inhibition [3]: 73%
IC50 [4]: 30 to 100 µM
IC50 [5]: 30 to 100 µM
PMA-induced phosphorylation of Erk-1 and Erk-2 [6]: blocked
IC50 [7]: 10 µM
PE induced constriction of the vessel ([8]; rottlerin 0.5 μM (FIG. 7D legend)): significantly inhibited
effect on phenylephrine mediated contraction ([8]; rottlerin 1 μM): no significant effect
reduction of phenylephrine mediated contraction ([8]; rottlerin 4 μM): more than 50%
histamine in BAL fluid [9]: inhibits an increase of histamine
effect on PKCα activity [10]: virtually no effect
maximal relaxation response to isoproterenol ([11]; OVA-sensitized rings, acute rottlerin in the bath 2 minutes prior to ISO): ~45%
isoproterenol-induced relaxation ([11]; PBS-treated (control) animals): enhanced the isoproterenol-induced relaxation
effect on PKCδ activity [12]: virtually no effect
